In PubChem BioAssay AID687032 (Broad Institute, 2013) one finds AC50 data, which are given here for 75 compounds.

Records with an inconclusive call do not appear.

For the assay, the system named is IOSE-T80 viability, CellTiterGlo ATP luminescence, 96 h. The experiment in a line: IOSE-T80 viability loss, PAX8-independent line – cell-based, cherry-pick, selectivity assay for PAX8 inhibitor project, dose response (AID 687032).
As to `COc1cccc(-c2ccc([C@H]3[C@@H](CO)N(C(=O)Cc4ccccc4)[C@H]3C#N)cc2)c1`, the AC50 is < 260 nM.

For the compound `COc1ccc(F)cc1-c1cc(NC=O)c2ncc(-c3cc(OC)c(OC)c(OC)c3)n2c1`, the AC50 is < 260 nM.

In the case of `Cc1cc(Nc2ccc3c(c2)OCCO3)c2ccccc2n1`, the AC50 was < 260 nM.

As for `Cn1c(CCN2CCCC2)nc2cc(NS(=O)(=O)c3ccccc3)ccc21`, the AC50 was < 260 nM.

On to `O=C(NC1CCCCC1)C(c1cccnc1)N(C(=O)CCl)c1ccc(F)cc1` (stereo not given), for which the AC50 was 10200 nM.

Consider `FC(F)(F)c1nnc2c(Sc3ccccn3)nc3ccccc3n12`, for which the AC50 was 8850 nM.

Regarding `C[C@@H]1CN([C@H](C)CO)C(=O)c2cc(NS(=O)(=O)c3ccc(Cl)cc3)ccc2O[C@@H](C)CCCCO[C@@H]1CN(C)Cc1ccccc1`, the AC50 was < 260 nM.

As to `CC(C)CCCCCCCCCCCCC(=O)NCC(=O)NC1C(C)OC(Nc2ncnc3nc[nH]c23)C(O)C1O` (stereo not given), the AC50 is < 260 nM.

For `Cc1ccc(-c2csc3ncnc(Sc4nnc(CN5CCCCCC5=O)o4)c23)cc1`, the AC50 was 8670 nM.

`O=C(c1cc([N+](=O)[O-])ccc1N1CCOCC1)N1CCN(c2ccccc2)CC1`: the AC50 was < 260 nM.

Consider `O=[N+]([O-])c1cccnc1S(=O)(=O)c1ccccc1`, for which the half-maximal activity concentration (AC50) was < 260 nM.

With `Cc1ccc(NC(=O)Cn2ncc(Cl)c(Cl)c2=O)cc1S(=O)(=O)N1CCCCC1`, the AC50 is < 260 nM.

Turning to `C[C@@H]1CCCCO[C@@H](CN(C)Cc2ccc(C(F)(F)F)cc2)[C@@H](C)CN([C@@H](C)CO)C(=O)c2cc(NS(=O)(=O)c3ccccc3)ccc2O1`, the AC50 is < 260 nM.

For `CCOC(=O)c1c(-c2ccc(F)cc2)csc1NC(=O)CN1C(=O)NC2(CCCCC2C)C1=O` (stereo not given), the AC50 is 9070 nM.

Take `O=C1CN(C(=O)Cn2ncc(Cl)c(Cl)c2=O)c2ccccc2N1`: the AC50 was < 260 nM.

Consider `O=S(=O)(c1ccccc1F)N1CC[C@@H]2[C@@H](CO)Nc3ccc(C4=CCCCC4)cc3[C@@H]21`, for which the AC50 is < 260 nM.

`COc1ccccc1C(=O)Nc1nc2ccccc2[nH]1`: the AC50 is 9810 nM.

Regarding `COc1ccc(S(=O)(=O)Nc2ccc3c(c2)C(=O)N([C@@H](C)CO)C[C@H](C)[C@@H](CN(C)Cc2ccc(C(F)(F)F)cc2)OCCCC[C@H](C)O3)cc1`, the AC50 was < 260 nM.

In the case of `C[C@@H]1CN([C@H](C)CO)C(=O)c2cc(NC(=O)Nc3ccc(C(F)(F)F)cc3)ccc2O[C@@H](C)CCCCO[C@H]1CN(C)Cc1ccccc1`, the AC50 was < 260 nM.

For the compound `CCC(C)(O)C(=O)OC1C(=O)OC2CC3C(C)=CC(=O)C(O)C3(C)C3C4(O)OCC23C1C(C)C4O` (stereo not given), the AC50 was 8840 nM.

As to `COc1cccc(N2CCN(C(=O)c3ccc(CS(=O)c4ccccc4Cl)o3)CC2)c1` (stereo not given), the AC50 was < 260 nM.

For the compound `C[C@@H]1CCCCO[C@@H](CN(C)Cc2ccc(Cl)c(Cl)c2)[C@H](C)CN([C@H](C)CO)C(=O)c2cc(NC(=O)Nc3ccc(C(F)(F)F)cc3)ccc2O1`, the AC50 was 35600 nM.

For `O=C(CCC(=O)c1ccccc1)NCCc1c[nH]c2ccccc12`, the AC50 was < 260 nM.

Regarding `C=C(C)c1nc(Oc2ccccc2)nc(Oc2ccccc2)n1`, the AC50 is < 260 nM.

`Cc1ccccc1CNC(=O)C1CCCN(c2nnc(C)c3c(C)n(-c4ccccc4)nc23)C1` (stereo not given): the AC50 is < 260 nM.

Turning to `Cc1ccc(S(=O)(=O)Nc2ccc3c(c2)C(=O)N([C@H](C)CO)C[C@@H](C)[C@H](CN(C)Cc2ccc(C(F)(F)F)cc2)OCCCC[C@@H](C)O3)cc1`, the AC50 was < 260 nM.

With `CC(=O)[C@@]1(O)Cc2c(O)c3c(c(O)c2[C@H](O[C@H]2C[C@H](N)[C@H](O)[C@H](C)O2)C1)C(=O)c1ccccc1C3=O`, the AC50 is 8800 nM.

Regarding `C[C@@H]1CCCCO[C@@H](CN(C)Cc2ccc(C(F)(F)F)cc2)[C@@H](C)CN([C@@H](C)CO)C(=O)c2cc(NS(=O)(=O)c3ccc(F)cc3)ccc2O1`, the AC50 was < 235 nM.

In the case of `COc1ccc(-n2nc3c(N4CCC(C(=O)NCc5cccc(C)c5)CC4)nnc(C)c3c2C)cc1`, the AC50 was < 260 nM.

As for `CCCC(=O)NC(c1ccc(C(C)C)cc1)c1ccc2cccnc2c1O` (stereo not given), the AC50 was < 260 nM.

In the case of `C[C@@H]1CN([C@H](C)CO)C(=O)c2cc(NC(=O)Nc3ccccc3)ccc2O[C@@H](C)CCCCO[C@@H]1CN(C)Cc1ccc(C(F)(F)F)cc1`, the AC50 is < 260 nM.

As to `C[C@@H]1CCCCO[C@@H](CN(C)C(=O)Nc2cccc3ccccc23)[C@H](C)CN([C@H](C)CO)C(=O)c2cc(NS(=O)(=O)c3ccc(F)cc3)ccc2O1`, the AC50 is < 260 nM.

Regarding `S=c1sc2c(Cl)ncnc2n1-c1ccccc1`, the AC50 is < 260 nM.

On to `CC1CN(CC(O)COC(c2ccccc2)c2ccccc2)CC(C)O1` (stereo not given), for which the AC50 was < 260 nM.

For `O=C(Nc1cccc(NC(=O)c2cccs2)c1)c1ccc([N+](=O)[O-])o1`, the AC50 was 8620 nM.

On to `Cc1ccc(S(=O)(=O)Nc2ccc3c(c2)CC(=O)N([C@H](C)CO)C[C@H](C)[C@H](CN(C)S(=O)(=O)c2ccc(F)cc2)O3)cc1`, for which the AC50 was < 260 nM.

As to `Cc1noc(C)c1S(=O)(=O)Nc1ccc2c(c1)C(=O)N([C@H](C)CO)C[C@H](C)[C@@H](CN(C)C(=O)Nc1ccc(C(F)(F)F)cc1)OCCCC[C@H](C)O2`, the AC50 is 23300 nM.

As for `N#Cc1ccc(-c2ccc(C3[C@@H]4CN(C(=O)C5CC5)C[C@H]3N4)cc2)cc1` (stereo not given in full), the AC50 was < 260 nM.

Consider `COc1cc(/C=N/O)ccc1OCc1ccc(C(=O)O)cc1`, for which the AC50 was 9950 nM.

For the compound `Cn1ncc2c(O/N=C(\N)c3ccc(C(F)(F)F)cc3)ncnc21`, the AC50 was < 260 nM.

Consider `C[C@H](CO)N1C[C@H](C)[C@H](CN(C)S(=O)(=O)c2ccc(Cl)cc2)OCCCC[C@H](C)Oc2ccc(NS(=O)(=O)c3ccc(F)cc3)cc2C1=O`, for which the AC50 is < 260 nM.

On to `C[C@@H]1CCCCO[C@H](CN(C)C(=O)Cc2ccccc2)[C@@H](C)CN([C@@H](C)CO)C(=O)c2cc(NC(=O)Nc3ccc(C(F)(F)F)cc3)ccc2O1`, for which the AC50 is < 260 nM.

Regarding `CCC(c1nnnn1Cc1ccccc1)N1CCC(n2c(=O)[nH]c3ccccc32)CC1` (stereo not given), the AC50 is < 260 nM.

As for `CCOc1ccc(-n2c(=S)sc3c(=O)[nH]c(SCC(=O)NCC4CCCO4)nc32)cc1` (stereo not given), the AC50 is < 260 nM.

As to `C[C@@H]1CCCCO[C@H](CN(C)Cc2ccc(C(F)(F)F)cc2)[C@H](C)CN([C@H](C)CO)C(=O)c2cc(NS(=O)(=O)c3cccs3)ccc2O1`, the AC50 was < 260 nM.

Consider `C[C@@H]1CCCCO[C@H](CN(C)C(=O)C2CCCCC2)[C@@H](C)CN([C@@H](C)CO)C(=O)c2cc(NC(=O)Nc3ccc(F)cc3)ccc2O1`, for which the AC50 was < 260 nM.

`CC(C)(C)[C@H](N)C(=O)N[C@H]1CCC2C3CC=C4C[C@@H](O)CC[C@]4(C)C3CC[C@@]21C` (stereo not given in full): the AC50 was < 260 nM.

Turning to `O=S(=O)(NCC1CCCO1)c1cnc(Cl)c(Br)c1` (stereo not given), the AC50 was < 260 nM.

On to `COc1ccc(S(=O)(=O)Nc2ccc3c(c2)C(=O)N([C@H](C)CO)C[C@H](C)[C@H](CN(C)Cc2ccc(C(F)(F)F)cc2)OCCCC[C@H](C)O3)cc1`, for which the AC50 is 3450 nM.

For the compound `COc1ccc(S(=O)(=O)Nc2ccc3c(c2)C(=O)N([C@H](C)CO)C[C@H](C)[C@@H](CN(C)Cc2ccc(Cl)c(Cl)c2)OCCCC[C@@H](C)O3)cc1`, the concentration at half-maximal activity (AC50) is 6540 nM.

Take `C[C@]12CCC3C(CCC4=CC(O)CC[C@@]43/C=N/O)C1(O)CCC2C1=CC(=O)OC1` (stereo not given in full): the AC50 is < 260 nM.

For the compound `COc1ccccc1C#Cc1ccc2c(c1)O[C@H](CN(C)Cc1cccnc1)[C@H](C)CN([C@@H](C)CO)S2(=O)=O`, the AC50 was 3050 nM.

Regarding `C#CCN(C[C@@H]1[C@@H](OC(=O)NCC2CCCCC2)[C@@H](OC(=O)NCC2CCCCC2)Cn2c(=O)ccc(=O)n21)S(=O)(=O)c1ccc(C)cc1`, the AC50 was < 260 nM.

Take `Cc1ccc2c(c1)c1c3n2CCN(CC(N)=O)C3CCC1` (stereo not given): the AC50 was 10200 nM.

As for `COCCn1c(C)cc(C2=NNC(=NC3CC3)SC2)c1C`, the AC50 was < 260 nM.

With `C[C@@H]1CN([C@@H](C)CO)C(=O)Cc2cc(NC(=O)NC3CCCCC3)ccc2O[C@@H]1CN(C)Cc1ccc(-c2ccccc2)cc1`, the AC50 was 27800 nM.

`COc1cccc(S(=O)(=O)N2CC[C@H]3[C@@H](CO)N(C)c4ccc(C#Cc5ccc(F)cc5)cc4[C@H]32)c1`: the AC50 is 34500 nM.

As for `C[C@@H]1CN([C@H](C)CO)C(=O)Cc2cc(NC(=O)Nc3ccc(F)cc3)ccc2O[C@H]1CN(C)Cc1ccc(Cl)c(Cl)c1`, the AC50 is < 260 nM.

With `Cn1c(SCC(=O)c2ccccc2)nnc1-c1ccccn1`, the AC50 was < 260 nM.

As for `Cc1ccc(S(=O)(=O)N(C)C[C@@H]2Oc3cc(C#Cc4ccncc4)ccc3S(=O)(=O)N([C@H](C)CO)C[C@@H]2C)cc1`, the AC50 is 24200 nM.

On to `CCOc1ccc(NC(=O)Nc2cc(OCC(F)(F)F)cc(OCC(F)(F)F)c2)cc1`, for which the AC50 was 8810 nM.

On to `Cc1ccc(NC(=O)CN(C)C(=O)Cn2ncc(Cl)c(Cl)c2=O)cc1`, for which the AC50 was < 260 nM.

With `CCN1CCN(c2nc(-c3cccs3)nc3ccccc23)CC1`, the AC50 is 10400 nM.

In the case of `O=C(NCc1ccco1)C1CCCN(S(=O)(=O)c2ccc(Br)cc2)C1` (stereo not given), the AC50 is < 260 nM.

Turning to `CCN(CC)S(=O)(=O)c1cc(NC(=O)Cn2ncc(Cl)c(Cl)c2=O)ccc1C`, the AC50 is < 260 nM.

`COc1ccc(CCNc2nnc(Sc3nnnn3-c3ccccc3)s2)cc1OC`: the AC50 was 8840 nM.

In the case of `C[C@@H]1CN([C@H](C)CO)C(=O)c2cc(NC(=O)Nc3ccc(F)cc3)ccc2O[C@@H](C)CCCCO[C@@H]1CN(C)Cc1ccc2c(c1)OCO2`, the AC50 was < 260 nM.

Consider `Cc1ccc(S(=O)(=O)N(C)C[C@@H]2Oc3cc(C#Cc4ccncc4)ccc3S(=O)(=O)N([C@H](C)CO)C[C@H]2C)cc1`, for which the AC50 was 3050 nM.

`C[C@@H]1CCCCO[C@H](CN(C)Cc2ccc(C(F)(F)F)cc2)[C@H](C)CN([C@@H](C)CO)C(=O)c2cc(NS(=O)(=O)c3cccs3)ccc2O1`: the AC50 was 33500 nM.

For the compound `Cc1ccc(C(=O)N/C(=C\c2ccc(-c3ccc(Br)cc3)o2)C(=O)NCCCN(C)C)cc1`, the AC50 was 9400 nM.

Consider `COc1cc(-c2cnc3c(NC=O)cc(-c4ccccc4)cn23)cc(OC)c1OC`, for which the AC50 was < 260 nM.

Regarding `O=c1cc(-c2ccccc2)oc2ccc3ccccc3c12`, the AC50 is < 260 nM.

Turning to `Cn1nnnc1Sc1ncnc2scc(-c3cccc(S(C)(=O)=O)c3)c12`, the AC50 is 8510 nM.

For the compound `C[C@H](CO)N1C[C@H](C)[C@@H](CN(C)C(=O)Nc2ccnc(N3CCOCC3)c2)OCc2cnnn2CCCC1=O`, the AC50 was < 260 nM.

As to `CCCn1c(C)cc(C(=O)CN2C(=O)c3ccccc3S2(=O)=O)c1C`, the AC50 is < 260 nM.

As a reminder, the AC50 is the concentration giving half of the maximal activity seen.
